Assay: molar heat capacity at constant volume
Conditions: Fluid (supercritical or subcritical phases), Vacuum adiabatic calorimetry

CC(C)O [propan-2-ol]
Conditions	molar heat capacity at constant volume [J/K/mol]
501.94 K, Mass density=343.1 kg/m3	317.72
502.03 K, Mass density=266.3 kg/m3	345.37
502.04 K, Mass density=343.1 kg/m3	315.2
502.13 K, Mass density=266.3 kg/m3	347.59
502.13 K, Mass density=343.1 kg/m3	309.67
502.22 K, Mass density=266.3 kg/m3	350.23
502.22 K, Mass density=343.1 kg/m3	314.54
502.31 K, Mass density=266.3 kg/m3	348.13
502.32 K, Mass density=343.1 kg/m3	312.25
502.41 K, Mass density=266.3 kg/m3	351.2
502.41 K, Mass density=343.1 kg/m3	317.66
502.5 K, Mass density=266.3 kg/m3	350.29
502.5 K, Mass density=343.1 kg/m3	312.07
502.6 K, Mass density=266.3 kg/m3	350.29
502.6 K, Mass density=343.1 kg/m3	310.39
503.92 K, Mass density=329.2 kg/m3	322.05
504.02 K, Mass density=329.2 kg/m3	325.72
504.11 K, Mass density=329.2 kg/m3	323.31
504.3 K, Mass density=329.2 kg/m3	318.86
504.37 K, Mass density=281.9 kg/m3	348.13
504.46 K, Mass density=281.9 kg/m3	351.02
504.5 K, Mass density=329.2 kg/m3	325.72
504.56 K, Mass density=234.3 kg/m3	386.83
504.56 K, Mass density=281.9 kg/m3	346.57
504.59 K, Mass density=329.2 kg/m3	319.65
504.65 K, Mass density=234.3 kg/m3	381.48
504.65 K, Mass density=281.9 kg/m3	351.08
504.74 K, Mass density=234.3 kg/m3	386.35
504.74 K, Mass density=281.9 kg/m3	346.63
504.84 K, Mass density=234.3 kg/m3	392.36
504.84 K, Mass density=281.9 kg/m3	355.64
504.93 K, Mass density=281.9 kg/m3	355.64
504.97 K, Mass density=234.3 kg/m3	391.52
504.98 K, Mass density=329.2 kg/m3	328.36
505.02 K, Mass density=281.9 kg/m3	349.27
505.08 K, Mass density=329.2 kg/m3	326.92
505.12 K, Mass density=234.3 kg/m3	387.07
505.12 K, Mass density=281.9 kg/m3	354.2
505.21 K, Mass density=234.3 kg/m3	382.87
505.21 K, Mass density=281.9 kg/m3	355.76
505.21 K, Mass density=324.5 kg/m3	333.29
505.27 K, Mass density=329.2 kg/m3	325.96
505.3 K, Mass density=234.3 kg/m3	387.13
505.3 K, Mass density=324.5 kg/m3	339.78
505.37 K, Mass density=329.2 kg/m3	325.35
505.4 K, Mass density=234.3 kg/m3	387.13
505.49 K, Mass density=288.99 kg/m3	349.87
505.58 K, Mass density=288.99 kg/m3	350.77
505.58 K, Mass density=324.5 kg/m3	333.05
505.68 K, Mass density=288.99 kg/m3	343.14
505.68 K, Mass density=324.5 kg/m3	338.82
505.77 K, Mass density=288.99 kg/m3	350.47
505.77 K, Mass density=324.5 kg/m3	335.27
505.77 K, Mass density=343.1 kg/m3	323.67
505.86 K, Mass density=288.99 kg/m3	346.63
505.86 K, Mass density=324.5 kg/m3	337.13
505.86 K, Mass density=343.1 kg/m3	325.29
505.96 K, Mass density=288.99 kg/m3	350.53
505.96 K, Mass density=324.5 kg/m3	332.09
505.96 K, Mass density=343.1 kg/m3	323.97
506.05 K, Mass density=288.99 kg/m3	354.32
506.05 K, Mass density=324.5 kg/m3	336.65
506.05 K, Mass density=343.1 kg/m3	326.26
506.14 K, Mass density=288.99 kg/m3	350.59
506.14 K, Mass density=324.5 kg/m3	342.42
506.14 K, Mass density=343.1 kg/m3	328.36
506.24 K, Mass density=288.99 kg/m3	350.65
506.24 K, Mass density=324.5 kg/m3	340.02
506.24 K, Mass density=343.1 kg/m3	327.04
506.33 K, Mass density=274 kg/m3	361.17
506.33 K, Mass density=288.99 kg/m3	346.33
506.33 K, Mass density=324.5 kg/m3	336.41
506.33 K, Mass density=343.1 kg/m3	326.44
506.42 K, Mass density=274 kg/m3	362.97
506.42 K, Mass density=343.1 kg/m3	329.92
506.43 K, Mass density=329.2 kg/m3	328.06
506.52 K, Mass density=274 kg/m3	361.05
506.52 K, Mass density=288.99 kg/m3	351.92
506.52 K, Mass density=324.5 kg/m3	341.04
506.52 K, Mass density=343.1 kg/m3	328.3
506.53 K, Mass density=329.2 kg/m3	330.64
506.61 K, Mass density=274 kg/m3	365.62
506.61 K, Mass density=288.99 kg/m3	355.52
506.61 K, Mass density=343.1 kg/m3	329.98
506.62 K, Mass density=329.2 kg/m3	335.93
506.7 K, Mass density=288.99 kg/m3	357.63
506.7 K, Mass density=324.5 kg/m3	343.74
506.72 K, Mass density=329.2 kg/m3	332.69
506.8 K, Mass density=288.99 kg/m3	349.21
506.8 K, Mass density=343.1 kg/m3	329.08
506.82 K, Mass density=329.2 kg/m3	332.27
506.89 K, Mass density=288.99 kg/m3	354.98

Source: the NIST ThermoML archive (doi:10.1016/j.jct.2019.03.023)
